Values of other authors, collected in patent US10639343B2, “Preparation method of Gynostemma pentaphyllum leaves extract and Gynostemma pentaphyllum extract prepared by the method thereof” (BTC CORPORATION, priority 2018, dated 2020).

Conditions: intraperitoneal injection, without training

## NC(=O)c1ncn([C@@H]2O[C@H](COP(=O)(O)O)[C@@H](O)[C@H]2O)c1N [AICAR, 5-aminoimidazole-4-carboxamide ribonucleotide]
  increase of the distance of exercise performance: 44%
